Among the test systems are 786-0 renal; CAKI-1 renal; HOP-92 NSCLC; LOX IMVI melanoma; MALME-3M melanoma; MCF7 breast; OVCAR-5 ovarian; RPMI-8226 leukemia; SF-268 CNS; SK-MEL-2 melanoma.
Assay in all cases: inhibition of tumour cell growth, NCI panel, 48 h

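Step 1: Grow cells in 96-well plates. Step 2: Expose to compound for 48 hours at 5 concentrations. Step 3: Interpolate endpoints linearly; if unreached, use highest concentration. GI50 = concentration required for 50% inhibition of growth. Definition used: TGI = concentration required for complete inhibition of growth.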

For the compound `C[C@@H]1CC[C@H]2[C@@H](C)C(O)O[C@@H]3O[C@]4(C)CC[C@@H]1[C@]32OO4` (stereo partly specified), the GI50 in the test with 786-0 renal was 1.59 µM; in the test on CAKI-1 renal it was 758 nM; in the test with HOP-92 NSCLC it was 716 nM; in the test on LOX IMVI melanoma it was 0.309 µM; in the test on MALME-3M melanoma, 1540 nM; in the test on MCF7 breast, 1660 nM. Besides, the GI50 is 0.735 µM in the test on OVCAR-5 ovarian, 143 nM in the test on RPMI-8226 leukemia, 1.4 µM in the test on SF-268 CNS and 2000 nM in the test with SK-MEL-2 melanoma. Moreover, the TGI was above 48.8 µM in the test with 786-0 renal; above 47.2 µM in the test on CAKI-1 renal; 7.05 µM in the test on HOP-92 NSCLC; 0.973 µM in the test on LOX IMVI melanoma; above 66.1 µM in the test with MALME-3M melanoma; 20.4 µM in the test with MCF7 breast. Further, the TGI is 39.4 µM with OVCAR-5 ovarian, above 62.7 µM in the test with SF-268 CNS and 15.2 µM in the test with SK-MEL-2 melanoma.
Take `N#C/C(=C\c1ccc(O)c(O)c1)C(=O)NCc1ccc(C(F)(F)F)cc1`: the GI50 in the test on 786-0 renal was 18.4 µM; in the test with HOP-92 NSCLC, 468 nM; in the test on LOX IMVI melanoma it was 7.54 µM; with MALME-3M melanoma, 771 nM; in the test with MCF7 breast, 21300 nM; in the test on OVCAR-5 ovarian, 14.2 µM. The GI50 in the test on RPMI-8226 leukemia was 3210 nM; with SF-268 CNS it was 14.9 µM. Further, the TGI was 37.5 µM in the test with 786-0 renal; 1.81 µM in the test with CAKI-1 renal; 12.3 µM with HOP-92 NSCLC; 20.4 µM in the test on LOX IMVI melanoma; 30.7 µM with MALME-3M melanoma; above 69 µM in the test with MCF7 breast. In addition, the TGI with OVCAR-5 ovarian is 44.7 µM; in the test with SF-268 CNS it was above 62.9 µM; in the test with SK-MEL-2 melanoma, 6.34 µM.
For `CCOC(=O)/C(=C/CC/C(C)=C/CC/C(C)=C/CCc1ccoc1)CC(=O)N1CCCCC1`, the GI50 is 5.29 µM in the test on 786-0 renal; 3160 nM in the test on CAKI-1 renal; 1700 nM with HOP-92 NSCLC; 4.43 µM with LOX IMVI melanoma; 2620 nM with MALME-3M melanoma; 2110 nM in the test on MCF7 breast. The GI50 in the test with OVCAR-5 ovarian was 3.1 µM; in the test on RPMI-8226 leukemia it was 1870 nM; in the test with SF-268 CNS, 8.91 µM; with SK-MEL-2 melanoma, 2040 nM. The TGI was 18.8 µM with 786-0 renal; 38.3 µM in the test with CAKI-1 renal; 4.26 µM with HOP-92 NSCLC; 15.8 µM in the test with LOX IMVI melanoma; 7.09 µM in the test on MALME-3M melanoma; 5.92 µM in the test with MCF7 breast. The TGI worked out at 14.9 µM in the test on OVCAR-5 ovarian, 5.47 µM in the test on RPMI-8226 leukemia, 38.3 µM with SF-268 CNS and 4 µM in the test with SK-MEL-2 melanoma.

Source of the values: PubChem BioAssay (NCI).
